Our source for the IC50 values is US10745420B2, “Tetrahydropyrido[4,3-d]pyrimidine inhibitors of ATR kinase” (Board of Regents, The University of Texas System, priority 2017, dated 2020).

Where two headings read alike, the source gives them in different places.

Assay [1] relates to ATR-driven phosphorylation of Chk1 kinase at Serine 345. In words: pCHK1 cellular assay (CHK1 p-Ser345 AlphaScreen SureFire) in HT-29 cells. It counts as cell-based. As to conditions: 4-nitroquinoline N-oxide 12 uM, read-out: pCHK1 Cell IC50. The method, then: Inhibitors of ATR kinase are effective at inhibiting the ATR-driven phosphorylation of the downstream target Chk1 kinase at Serine 345, following the addition of 4-nitroquinoline N-oxide, a chemical used to induce DNA damage. Cellular IC50 for the inhibitors of ATR described herein were measured in HT-29 colorectal adenocarcinoma cells. HT-29 cells were routinely maintained in McCoy's 5A media (ATCC Catalog #30-2007) supplemented with 10% fetal bovine serum (Sigma Catalog # F2442) and 1× Penicillin-Streptomycin (Gibco Catalog #15140-122) using a humidified incubator (37° C., 5% CO2, and ambient O2).
In preparation for the CHK1 (p-Ser345) ALPHASCREEN® SUREFIRE® assay, cells were harvested and resuspended in McCoy's 5A media supplemented with 10% fetal bovine serum and 1× Penicillin-Streptomycin. Cells were seeded onto a 384-well black CELLSTAR® Tissue Culture Plate (VWR Catalog #89085-314) at a density of 13,000 cells/well in a volume of 40 uL. The microplate was incubated overnight (approximately 20 hours) at 37° C. with 5% CO2 and ambient O2. Stock solutions of the test compounds were prepared in 100% DMSO (Sigma, Catalog # D2650) and serially diluted 1:3 using 100% DMSO. Compounds were additionally diluted 1:33 in culture medium, and 10 ul/well were transferred to the tissue culture plate. Following the compound addition the microplate was incubated at 37° C. for 90 minutes. 10 uL of 4-nitroquinoline N-oxide (Sigma Aldrich Catalog # N8141-1G) diluted in media (final concentration 12 uM) were added to the tissue culture plate followed by a 120 minute incubation at 37° C. The cells were then washed with PBS and lysed using 10 uL/well SUREFIRE® Kit lysis buffer diluted to 1× in water (PerkinElmer Catalog # TGRCHK1S50K), with mixing on an orbital shaker at 500 rpm for 20 min at RT. Lysates were frozen at −20° C. overnight.
4 uL/well of lysate was then transferred from the tissue culture plate to a 384-well, white, low volume, PROXIPLATE™ (PerkinElmer Catalog #600828). 5 uL/well of the acceptor bead solution, prepared by diluting SUREFIRE® Kit activation buffer (PerkinElmer Catalog # TGRCHK1S50K) and ALPHASCREEN® Protein A acceptor beads (PerkinElmer Catalog #6760617R) in SUREFIRE® Kit reaction buffer (PerkinElmer Catalog # TGRCHK1S50K), were added to the lysates under subdued light and incubated at room temperature for 120 min. 2 uL/well of the donor bead solution, prepared by diluting ALPHASCREEN® Streptavidin donor beads (PerkinElmer Catalog #6760617R) in SUREFIRE® Kit dilution buffer (PerkinElmer Catalog # TGRCHK1S50K), were added under subdued light and incubated at room temperature for an addition 120 minutes. The pCHK1 ALPHASCREEN® signal was measured using an ENVISION® plate reader (PerkinElmer). IC50 values were calculated using a four-parameter logistic curve fit using Genedata Screener software. Percent of control for each compound concentration was calculated by the following formula: 100*(Compound-Min)/(Max-Min) where “Max” is the high control, DMSO, and “Min” is the low control, 5 uM ATR inhibitor.
(In general: In Alpha technology, singlet oxygen from a donor bead excites a nearby acceptor bead.)

Another assay addresses ATR/ATRIP complex (Homo sapiens (Human), UniProt Q13535). In words: ATR/ATRIP enzymatic assay (Caliper-based). The assay is classed as biochemical. As to conditions: FAM-labeled RAD17 peptide, ATP; read-out: ATR/ATRIP Enzyme IC50. The protocol:
Human full-length FLAG-TEV-ATR and His6-ATRIP were co-expressed in HEK293 cells. The cell pellet (20 g) was harvested and lysed in 100 mL of lysis buffer (20 mM Tris-HCl pH 7.5 at room temperature, 137 mM NaCl, 10% glycerol, 1 mM DTT, 1% (v/v) Tween-20, 0.1% (v/v) NP-40, complete protease inhibitor cocktail tablets, phosphatase inhibitor cocktail tablets, 2 mM MgCl2, 0.2 mM EDTA, and 1 mM ATP). After sonication and centrifugation, the supernatant was incubated at 4° C. for 3 hours with 1 mL of anti-FLAG resin (Sigma catalog # A2220) that had been pre-equilibrated in buffer A (20 mM Tris-HCl pH 7.5 at room temperature, 137 mM NaCl, 10% glycerol, 1 mM DTT, 2 mM MgCl2, and 0.2 mM EDTA). The sample was loaded into a column, and then washed with buffer A three times. Protein was subsequently eluted with 2 ml of buffer B (buffer A+200 μg/ml 3×FLAG peptide).
The ability of new chemical matter to inhibit the ATR catalytic activity in this ATR/ATRIP complex was assessed a Caliper-based assay. A 2× enzyme solution (i.e., 4 nM enzyme) was prepared using 1× Kinase Reaction Buffer (25 mM HEPES pH 8, 0.0055% Brij-35, 10 mM MnCl2, and 1 mM DTT). A 2× peptide solution was then prepared consisting of 10 uM FAM-labeled RAD17 peptide (GL Biochem, catalog #524315) in 1× Kinase Reaction Buffer supplemented with 2 μM ATP. 10 μL of the 2× enzyme solution was transferred to an assay plate containing 60 nL of test compound (from a 3× serial dilution) in 100% DMSO. Following a 30 minute incubation at 28° C., 10 μL of the 2× peptide solution was then transferred to the same assay plate. The reaction was allowed to incubate at 28° C. for 6 hours. After adding 30 μL of stop buffer (100 mM HEPES pH 7.5, 0.015% Brij-35, 0.2% Coating-3 Reagent (PerkinElmer, catalog # PN760050), and 50 mM EDTA), data were collected on a Caliper instrument. […] IC50 values were calculated using the following equation in XLFit: Y=Bottom+(Top-Bottom)/1+(IC50/X)^HillSlope).

Where [2] appears, read: Homo sapiens, HT-29, HT-29 colorectal adenocarcinoma cells.

ATR/ATRIP complex, sequence (Q13535 whole entry): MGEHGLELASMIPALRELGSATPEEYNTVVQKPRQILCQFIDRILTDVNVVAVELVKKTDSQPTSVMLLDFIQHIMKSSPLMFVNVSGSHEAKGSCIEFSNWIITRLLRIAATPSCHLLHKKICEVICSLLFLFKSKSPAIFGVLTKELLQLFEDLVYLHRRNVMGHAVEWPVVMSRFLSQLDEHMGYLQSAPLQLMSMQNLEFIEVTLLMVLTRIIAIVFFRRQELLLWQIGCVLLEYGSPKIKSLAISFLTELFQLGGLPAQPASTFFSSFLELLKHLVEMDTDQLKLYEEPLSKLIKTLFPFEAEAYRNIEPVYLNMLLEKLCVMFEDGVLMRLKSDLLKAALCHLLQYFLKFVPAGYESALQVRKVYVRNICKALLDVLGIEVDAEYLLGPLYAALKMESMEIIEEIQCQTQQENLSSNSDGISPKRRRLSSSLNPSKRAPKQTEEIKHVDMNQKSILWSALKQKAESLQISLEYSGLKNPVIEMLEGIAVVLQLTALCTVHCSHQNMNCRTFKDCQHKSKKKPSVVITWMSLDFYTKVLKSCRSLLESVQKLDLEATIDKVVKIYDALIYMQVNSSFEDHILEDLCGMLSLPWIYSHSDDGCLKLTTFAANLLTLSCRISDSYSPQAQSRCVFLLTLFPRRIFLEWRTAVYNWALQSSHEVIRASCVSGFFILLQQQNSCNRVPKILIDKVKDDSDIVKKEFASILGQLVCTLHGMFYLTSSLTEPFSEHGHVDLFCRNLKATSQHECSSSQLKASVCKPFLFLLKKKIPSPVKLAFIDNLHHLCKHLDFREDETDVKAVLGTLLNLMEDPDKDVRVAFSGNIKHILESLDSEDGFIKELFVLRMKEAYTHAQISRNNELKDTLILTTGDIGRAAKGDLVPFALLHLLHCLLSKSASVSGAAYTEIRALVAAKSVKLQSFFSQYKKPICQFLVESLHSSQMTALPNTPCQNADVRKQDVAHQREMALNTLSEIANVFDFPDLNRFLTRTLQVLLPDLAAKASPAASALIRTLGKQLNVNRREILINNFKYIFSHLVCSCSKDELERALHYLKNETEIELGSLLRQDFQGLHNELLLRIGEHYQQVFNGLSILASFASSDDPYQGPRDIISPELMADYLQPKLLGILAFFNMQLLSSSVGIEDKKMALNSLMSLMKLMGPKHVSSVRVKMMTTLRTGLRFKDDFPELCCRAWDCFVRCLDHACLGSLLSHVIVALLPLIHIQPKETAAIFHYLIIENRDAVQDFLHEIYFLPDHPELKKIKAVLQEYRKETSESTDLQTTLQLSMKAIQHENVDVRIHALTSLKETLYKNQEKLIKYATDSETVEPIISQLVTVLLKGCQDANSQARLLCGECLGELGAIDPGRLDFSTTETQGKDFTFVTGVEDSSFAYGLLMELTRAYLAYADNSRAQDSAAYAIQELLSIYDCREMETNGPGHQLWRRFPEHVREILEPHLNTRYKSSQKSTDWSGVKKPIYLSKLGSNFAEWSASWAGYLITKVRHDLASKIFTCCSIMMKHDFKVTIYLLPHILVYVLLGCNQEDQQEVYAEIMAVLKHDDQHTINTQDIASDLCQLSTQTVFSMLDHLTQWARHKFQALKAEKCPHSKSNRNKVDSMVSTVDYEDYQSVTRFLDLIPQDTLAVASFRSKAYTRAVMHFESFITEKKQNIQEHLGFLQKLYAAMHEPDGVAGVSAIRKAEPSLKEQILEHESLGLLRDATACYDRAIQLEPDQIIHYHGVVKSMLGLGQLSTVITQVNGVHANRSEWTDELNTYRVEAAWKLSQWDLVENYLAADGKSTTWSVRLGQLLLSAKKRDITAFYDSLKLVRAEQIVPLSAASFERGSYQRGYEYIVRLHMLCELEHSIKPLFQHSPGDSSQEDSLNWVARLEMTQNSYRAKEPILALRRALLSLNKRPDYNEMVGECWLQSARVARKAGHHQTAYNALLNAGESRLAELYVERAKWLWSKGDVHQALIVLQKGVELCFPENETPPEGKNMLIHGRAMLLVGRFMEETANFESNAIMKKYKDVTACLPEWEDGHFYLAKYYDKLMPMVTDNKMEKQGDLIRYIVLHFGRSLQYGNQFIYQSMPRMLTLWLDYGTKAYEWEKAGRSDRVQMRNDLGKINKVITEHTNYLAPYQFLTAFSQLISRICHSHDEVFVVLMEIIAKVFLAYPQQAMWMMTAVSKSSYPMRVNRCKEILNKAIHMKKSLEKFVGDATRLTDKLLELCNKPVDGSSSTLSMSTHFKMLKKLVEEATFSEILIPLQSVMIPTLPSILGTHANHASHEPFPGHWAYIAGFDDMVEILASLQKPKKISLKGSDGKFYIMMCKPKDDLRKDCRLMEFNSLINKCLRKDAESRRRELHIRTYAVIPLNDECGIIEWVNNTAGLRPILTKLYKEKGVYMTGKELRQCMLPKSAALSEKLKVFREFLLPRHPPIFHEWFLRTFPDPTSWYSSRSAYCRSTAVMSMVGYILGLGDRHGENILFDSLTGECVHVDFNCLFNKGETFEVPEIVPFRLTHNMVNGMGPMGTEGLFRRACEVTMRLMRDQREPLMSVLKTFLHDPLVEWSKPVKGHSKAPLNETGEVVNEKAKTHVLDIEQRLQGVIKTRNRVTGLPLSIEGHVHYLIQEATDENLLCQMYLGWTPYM
ATR/ATRIP complex, sequence (Q8WXE1 whole entry partner): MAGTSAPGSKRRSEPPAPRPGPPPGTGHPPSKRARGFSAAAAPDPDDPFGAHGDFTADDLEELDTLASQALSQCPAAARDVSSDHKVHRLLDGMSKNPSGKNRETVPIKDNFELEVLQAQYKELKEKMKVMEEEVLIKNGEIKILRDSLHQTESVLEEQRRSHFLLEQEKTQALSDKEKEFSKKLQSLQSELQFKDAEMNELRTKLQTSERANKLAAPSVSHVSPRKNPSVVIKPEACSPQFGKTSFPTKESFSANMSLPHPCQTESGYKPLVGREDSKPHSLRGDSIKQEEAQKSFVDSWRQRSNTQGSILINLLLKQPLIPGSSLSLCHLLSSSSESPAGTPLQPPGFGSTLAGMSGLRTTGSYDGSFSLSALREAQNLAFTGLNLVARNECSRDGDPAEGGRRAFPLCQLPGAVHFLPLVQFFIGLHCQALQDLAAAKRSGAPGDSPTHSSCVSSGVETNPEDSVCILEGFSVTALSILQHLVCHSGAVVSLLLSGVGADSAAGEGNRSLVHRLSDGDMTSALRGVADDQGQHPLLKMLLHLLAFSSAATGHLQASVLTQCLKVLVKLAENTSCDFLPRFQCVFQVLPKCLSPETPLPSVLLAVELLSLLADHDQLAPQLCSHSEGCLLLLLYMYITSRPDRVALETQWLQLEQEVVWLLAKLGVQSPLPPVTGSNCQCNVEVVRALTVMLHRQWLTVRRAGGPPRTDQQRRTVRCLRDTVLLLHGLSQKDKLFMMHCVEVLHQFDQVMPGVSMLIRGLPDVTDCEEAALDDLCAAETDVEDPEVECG

On to `C[C@@H]1Cc2ncnc([C@H]3CCN(S(C)(=O)=O)C(C)(C)C3)c2CN1c1ccnc2[nH]ccc12` (single isomer, unassigned) [Example 48b], for which, in assay [1] (setting [2]), the IC50 was 79 nM. With `C[C@@H]1Cc2ncnc(C3CCCN(S(C)(=O)=O)C3)c2CN1c1cc(Cl)nc2[nH]ccc12` (single isomer, unassigned) [Example 51a], on ATR/ATRIP complex, the IC50 worked out at 561 nM. For `C[C@@H]1Cc2ncnc(C3CCCN(S(C)(=O)=O)C3)c2CN1c1cc(Cl)nc2[nH]ccc12` (single isomer, unassigned) [Example 51b], on ATR/ATRIP complex, the IC50 amounted to 2200 nM.

Regarding `C[C@@H]1Cc2ncnc(N3CCC(S(C)(=O)=O)CC3)c2CN1c1cc(Cl)nc2[nH]ccc12` [Example 9, (R)-6-(6-Chloro-1H-pyrrolo[2,3-b]pyridin-4-yl)-7-methyl-4-(4-(methylsulfonyl)-piperidin-1-yl)-5,6,7,8-tetrahydropyrido[4,3-d]pyrimidine bis(trifluoroacetate)], in assay [1] (HT-29 colorectal adenocarcinoma cells), the IC50 amounted to 25 nM. `C[C@@H]1Cc2ncnc([C@H]3CCN(S(C)(=O)=O)C3)c2CN1c1ccnc2[nH]ccc12` [Example 57b, (R)-7-methyl-4-((S)-1-(methylsulfonyl)pyrrolidin-3-yl)-6-(1H-pyrrolo[2,3-b]pyridin-4-yl)-5,6,7,8-tetrahydropyrido[4,3-d]pyrimidine]: the IC50 in assay [1] (setting [2]) was found to be 394 nM.

For `C[C@@H]1Cc2ncnc(N3C[C@H]4CC[C@@H](C3)[C@H]4NS(C)(=O)=O)c2CN1c1ccnc2[nH]ccc12` [Example 74, N-((1R,5S,8R)-3-((R)-7-methyl-6-(1H-pyrrolo[2,3-b]pyridin-4-yl)-5,6,7,8-tetrahydropyrido[4,3-d]pyrimidin-4-yl)-3-azabicyclo[3.2.1]octan-8-yl)methanesulfonamide], the figures for the IC50 (in assay [1] (setting [2]); at ATR/ATRIP complex) were 31 nM and 279 nM, respectively. Regarding `C[C@@H]1Cc2ncnc(N3CCC(S(C)(=O)=O)CC3)c2CN1c1ccnc2[nH]ccc12` [Example 88, (R)-7-methyl-4-(4-(methylsulfonyl)piperidin-1-yl)-6-(1H-pyrrolo[2,3-b]pyridin-4-yl)-5,6,7,8-tetrahydropyrido[4,3-d]pyrimidine], the IC50 in assay [1] (setting [2]) came to 85 nM.
